For one test, the target named is T1, RXFP1 (Homo sapiens, UniProt Q9HBX9).
T1 sequence (Q9HBX9 1-757): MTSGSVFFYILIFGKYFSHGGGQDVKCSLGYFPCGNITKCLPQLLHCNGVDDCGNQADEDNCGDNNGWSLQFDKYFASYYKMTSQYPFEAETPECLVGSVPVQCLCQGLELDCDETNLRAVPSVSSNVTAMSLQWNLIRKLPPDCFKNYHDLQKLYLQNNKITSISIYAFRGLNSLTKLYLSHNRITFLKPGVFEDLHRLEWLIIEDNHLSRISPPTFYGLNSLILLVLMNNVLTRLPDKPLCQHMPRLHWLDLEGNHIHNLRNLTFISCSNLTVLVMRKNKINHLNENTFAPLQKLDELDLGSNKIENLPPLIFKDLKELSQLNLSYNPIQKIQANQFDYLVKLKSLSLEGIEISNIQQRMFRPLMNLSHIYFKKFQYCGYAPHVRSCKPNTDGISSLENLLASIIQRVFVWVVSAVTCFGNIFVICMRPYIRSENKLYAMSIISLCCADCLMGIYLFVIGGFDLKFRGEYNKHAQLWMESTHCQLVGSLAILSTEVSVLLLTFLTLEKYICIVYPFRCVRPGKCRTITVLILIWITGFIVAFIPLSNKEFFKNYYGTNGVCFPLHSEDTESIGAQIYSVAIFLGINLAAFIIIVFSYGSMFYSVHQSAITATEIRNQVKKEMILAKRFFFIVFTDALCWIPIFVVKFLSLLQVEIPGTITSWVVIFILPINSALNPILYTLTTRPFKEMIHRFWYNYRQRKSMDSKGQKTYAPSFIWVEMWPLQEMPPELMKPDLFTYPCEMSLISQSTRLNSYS
Briefly: Phospho-VASP (Ser157) MSD assay in EA.hy926_RXFP1 cells. It counts as cell-based. More on the design: expressed in transfected cells; host or cells: EA.hy926 (ATCC CRL-2922), lentiviral transduction, puromycin selection. The note with it: serum-free DMEM, 20 min 37 °C, n = 3, read-out: EC50 [CI95%] VASP phosphorylation on S157. On the procedure:
These experiments were conducted according to the MSD protocol (K151FFD-2) and using a Sector 2400 from Mesoscale Discovery. In order to reduce the basal phosphorylation activity of VASP protein, EA.hy926_RXFP1 cells were stimulated with effector solutions in basal DMEM (i.e., without serum). Cells were plated in 96-well plate at a density of 35.000 cells/well overnight in a volume of 200µL of cell culture media. Prior to stimulation, growth medium was discarded, and the cells were washed one time with basal DMEM medium, before being incubated for 4 h with basal DMEM medium at 37 °C in 5% CO2. […] For control cells, 50µL of basal DMEM medium without effector standard solution were added onto the cells. The microplates were incubated for 20 min at 37 °C in 5% CO2. All the following steps were carried-out on ice. Medium was aspirated and the cells were directly lysed by addition of 50μL of complete lysis buffer/well (lysis buffer is provided in the pVASP assay kit and prepared according to MSD instructions). The microplates were placed for 60 min under orbital agitation. The cell lysates were collected in round bottom microplate then stored at − 80 °C until pVASP content determination according to MSD protocol.

In the next test the target is T2, hRXFP1 (F76V) (Homo sapiens, UniProt Q9HBX9, F76V).
T2 sequence (Q9HBX9 1-757 F76V): T1 sequence (Q9HBX9 1-757) with F76V
Put plainly: cAMP production in HEK cells expressing hRXFP1 (F76V). It counts as cell-based. The note with it: hRXFP1 F76V mutant, n = 4 experiments in duplicate. On the procedure: HEK cells were stably transduced with lentiviral constructs (Vectalys, MOI 20, batches rV2.1A1.5057 B, rV2.1A1.5056 B and rV2.1A1.5059 B) containing a bicistronic vectors encoding hRXFP1 (S69P) or hRXFP1 (F76V) or hRXFP1 (S69P/F76V) under the EF1 promoter followed by an internal ribosome entry site (IRES) elements to express the neomycin antibiotic resistance gene for selection with 500 μg/mL Geneticin (Invitrogen, #10131-019). Three days post transduction, HEK cells were grown in the presence of Genetecin. Positive individual clones were selected and amplified, and cAMP readout (nM) was used as described for other cell types at a cell density of 8000 cells/well.

Changes are numbered by the printed parent chain. *1 amine or outer side, *2 acyl side, *3 side chain or, on linkers, in order; H or OH if unused. Where a SMILES comes first, the peptide text is derived from it. Side-chain parts run from the residue outwards. [ ]: non-standard residue; d: D form. The star is where a group is joined. γGlu = O=C(O)[C@H](CCC(=O)[*:2])N[*:1]; Stearoyl = CCCCCCCCCCCCCCCCCC(=O)*; Nle = CCCC[C@H](N)C(=O)O; AEEA = NCCOCCOCC(=O)O; Aib = CC(C)(N)C(=O)O

Consider `CCCCCCCCCCCCCCCCCC(=O)N[C@@H](CCC(=O)N[C@@H](CCC(=O)N[C@@H](CCC(=O)NCCOCCOCC(=O)NCCOCCOCC(=O)NCCOCCOCC(=O)NCCCC[C@H](NC(=O)[C@H](CCCCNC(C)=O)NC(=O)[C@H](CCCCN)NC(=O)[C@H](CCCNC(=N)N)NC(=O)C(C)(C)NC(=O)[C@H](CO)NC(=O)[C@H](Cc1c[nH]c2ccccc12)NC(=O)[C@@H](NC(=O)[C@H](CO)NC(=O)[C@H](CCCC)NC(=O)CNC(=O)[C@H](CCC(=O)O)NC(=O)C(C)(C)NC(=O)C(C)(C)NC(=O)[C@@H](NC(=O)[C@H](CCCCNC(C)=O)NC(=O)[C@H](C)NC(=O)[C@H](CCCNC(=N)N)NC(=O)[C@@H](NC(=O)[C@H](CCCCN)NC(=O)[C@H](CCC(=O)O)NC(=O)[C@H](CCCNC(=N)N)NC(=O)CNC(=O)[C@H](CCC(=O)O)NC(=O)[C@H](CC(C)C)NC(C)=O)C(C)C)[C@@H](C)CC)[C@@H](C)O)C(N)=O)C(=O)O)C(=O)O)C(=O)O` [SA10SC-RLX] (Ac-LEGREKVRAK(Ac)I[Aib][Aib]EG[Nle]STWS[Aib]RKK(Ac)K([AEEA-AEEA-AEEA-γGlu-γGlu-γGlu-Stearoyl])-NH2), for which the 50% effective concentration (EC50) at RXFP1 was found to be 0.19 nM.
Take relaxin: the “cAMP response (efficacy)” value at hRXFP1 (F76V) was “reduced in all RXFP1 mutants compared to the wild type construct”.

The EC50 is the concentration at which the effect is half-maximal.

For the origin of these results see paper PMC9705314, “Characterization of a new potent and long-lasting single chain peptide agonist of RXFP1 in cells and in vivo translational models” (Scientific Reports, 2022).
